# Experimental data: US7273866B2, “2-aryl thiazole derivatives as KCNQ modulators” (Bristol-Myers Squibb Company, priority 2002, dated 2007)
# Test system: KCNQ channels
# Assay: Thallium flux assay for KCNQ channel openers
# Format: cell-based
# Conditions: HEK-293 cells stably transfected with a KCNQ family member; for Min. conc. response: minimal active concentration: lowest concentration giving signal amplitude >= four standard deviations of negative controls; for EC50: thallium flux, 10 point concentration series
# Description: Thallium Flux Assay for KCNQ channel Openers. The thallium assay is a modification of that published by Weaver and is referenced in its entirety (Weaver, C. D. WO 02/31508, 2002).
# Approximately 20,000 cells/well of an HEK-293 cell line stably transfected with one of the members of the KCNQ family were plated into clear-bottom, black-walled, poly-D-lysine coated, 384 well assay plates in 20 μl/well of low chloride plating medium. Low chloride plating medium was composed of the following: sodium gluconate, 109 mM; potassium gluconate, 5.4 mM; hemi-calcium gluconate, 3.6 mM; magnesium sulfate, 0.8 mM; sodium bicarbonate, 26.2 mM; sodium phosphate monobasic, 1.2 mM; glutamine, 2 mM; glucose, 5 mM; 4-(2-hydroxyethyl)-1-piperazineethanesulfonic acid (HEPES) (pH 7.3) 10 mM, MEM vitamin solution (10× concentration of vitamins, Gibco/LifeTechnologies 11120-052) and MEM amino acid solution (1× concentration of amino acids, Gibco/LifeTechnologies 11130-051).
# Following overnight incubation in a 5% CO2 incubator at 37° C., the cells in the plates were loaded with 20 μl/well of a dye loading solution containing the commercially available thallium-sensitive fluorescent dye BTC-AM, the acetomethoxy ester of BTC (see U.S. Pat. No. 5,501,980) (2 μM) and pluronic acid F-127 (Molecular Probes P 6867) (0.02% w/v) in chloride free assay buffer. Chloride free assay buffer was composed of the following: sodium gluconate, 140 mM; potassium gluconate, 2.5 mM; hemi-calcium gluconate, 6 mM; hemi-magnesium gluconate, 2 mM; glucose, 5 mM; HEPES (pH 7.3), 10 mM.
# Following incubation in the dye loading solution for from 45-90 min at room temperature, the dye loading solution was removed by aspiration and replaced with 40 μl/well of chloride free assay buffer.
# Prior to addition to cell plates, test compound and standard compounds were dissolved in DMSO to 3 mM concentration. Compounds were then diluted from the 3 mM stock to 100-fold over the final assay concentration in DMSO. Finally, compounds in DMSO were diluted from 100-fold over the final assay concentration to 5-fold over the final assay concentration in chloride free assay buffer.
# Ten μl/well of compounds at 5-fold over the final assay concentration were then added to the cell plates. This represents a 1:5 dilution, yielding the final test concentration. The wells used for test compounds were A1-P20. Wells A21-P22 contained a standard opener and a maximally efficacious concentration (positive control). Wells A23-P24 contained chloride free assay buffer containing 1% DMSO (negative control).
# Following addition of test compounds, the plates were loaded onto the Molecular Devices FLIPR. The 488 nm line of the argon laser was used to excite the BTC and the emission filter was a 540(+/−30) nm. Images were collected at 1 Hz. Ten seconds of baseline were collected and then the FLIPR was used to add 13 μl/well of a stimulus buffer composed of 7.5 mM Tl2SO4 in chloride free assay buffer. Images were collected for an additional 60 seconds.
# For data analysis, the amplitude of the average of the negative controls was subtracted from all wells. The amplitudes of the test compounds were then compared to the value of four standard deviations of the negative control wells. The lowest concentration of a test compound sufficient to generate a signal amplitude greater than or equal to four standard deviations from the amplitude of the negative controls was defined as the minimal active concentration.
# For generating EC50 values, compounds were serially diluted in 1:3 volume increments to produce a 10 point concentration series. EC50 values were calculated by fitting the resulting amplitudes to a single-site logistic equation. EC50 was defined as the concentration of test compound required to yield 50% of the maximal response. Maximal response (Maximal opening) was the largest signal amplitude divided by the negative control amplitude generated by any concentration of a test compound. […]
Compound,EC50 [nM],Min. conc. response [µM]
"COc1ccc(F)cc1-c1nc(C(F)(F)F)c(C(=O)NC(C)c2cccc(C(F)(F)F)c2)s1 (stereo not shown) [Example 43, 2-(5-fluoro-2-methoxyphenyl)-4-(trifluoromethyl)-N-[1-[3-(trifluoromethyl)phenyl]ethyl]-5-thiazolecarboxamide]",50 to 1000,3
"COc1ccc(F)cc1-c1nc(C(F)(F)F)c(C(=O)NCc2cccc(F)c2)s1 [Example 44, 2-(5-fluoro-2-methoxyphenyl)-4-(trifluoromethyl)-N-[(3-fluorophenyl)methyl]-5-thiazolecarboxamide]",50 to 1000,3
"COc1ccc(F)cc1-c1nc(C(F)(F)F)c(C(=O)N[C@@H](C)c2cccc(N3CCOCC3)c2)s1 [Example 47, (S)-2-(5-fluoro-2-methoxyphenyl)-4-(trifluoromethyl)-N-[1-[3-(4-morpholinyl)phenyl]ethyl]-5-thiazolecarboxamide]",1000 to 20000,3
"COc1cccc([C@H](C)NC(=O)c2sc(-c3cc(F)ccc3OC)nc2C(F)(F)F)c1 [Example 48, (S)-2-(5-fluoro-2-methoxyphenyl)-4-(trifluoromethyl)-N-[1-[3-(methoxy)phenyl]ethyl]-5-thiazolecarboxamide]",50 to 1000,3
"C[C@H](NC(=O)c1sc(-c2ccccc2Cl)nc1C(F)(F)F)c1cccc(N2CCOCC2)c1 [Example 52, 2-(2-chlorophenyl)-4-(trifluoromethyl)-N-[1-[3-(4-morpholinyl)phenyl]ethyl]-5-thiazolecarboxamide]",50 to 1000,3
"CC(NC(=O)c1sc(-c2ccccc2Cl)nc1C(F)(F)F)c1cccc(CN2CCOCC2)c1 (stereo not shown) [Example 53, 2-(2-chlorophenyl)-4-(trifluoromethyl)-N-[1-[3-(4-morpholinylmethyl)phenyl]ethyl]-5-thiazolecarboxamide]",1000 to 20000,3
"COc1cccc(C(C)NC(=O)c2sc(-c3ccccc3N3CCOCC3)nc2C(F)(F)F)c1 (stereo not shown) [Example 55, 2-[2-(4-morpholinyl)phenyl]-4-(trifluoromethyl)-N-[1-[3-(methoxy)phenyl]ethyl]-5-thiazolecarboxamide]",1000 to 20000,0.3
CCN(Cc1ccncc1)Cc1ccccc1-c1nc(C(F)(F)F)c(C(=O)N[C@@H](C)c2cccc(OC)c2)s1 [Example 60],50 to 1000,0.3
CCN(Cc1ccncc1)Cc1cccnc1-c1nc(C(F)(F)F)c(C(=O)N[C@@H](C)c2cccc(N3CCOCC3)c2)s1 [Example 62],50 to 1000,3
CCN(Cc1ccncc1)Cc1cccnc1-c1nc(C(F)(F)F)c(C(=O)NC(C)c2cccc(CN3CCOCC3)c2)s1 (stereo not shown) [Example 63],50 to 1000,30
"C[C@@H]1CN(c2cccc([C@H](C)NC(=O)c3sc(-c4ncccc4CN4CCOCC4)nc3C(F)(F)F)c2)C[C@H](C)O1 [Example 64, (S)-2-[3-(4-morpholinylmethyl)pyridin-2-yl]-4-(trifluoromethyl)-N-[1-[3-(2,6-dimethyl-4-morpholinyl)phenyl]ethyl]-5-thiazolecarboxamide]",50 to 1000,10
CCN(Cc1cccnc1-c1nc(C(F)(F)F)c(C(=O)N[C@@H](C)c2cccc(N3C[C@@H](C)O[C@@H](C)C3)c2)s1)C(C)C [Example 65],50 to 1000,10

# Further lines, with some results ahead:
EC50 [nM],Compound,Min. conc. response [µM]
50 to 1000,"COc1ccc(F)cc1-c1nc(C(F)(F)F)c(C(=O)NC(C)c2cccc(OC(F)(F)F)c2)s1 (stereo not shown) [Example 41, 2-(5-fluoro-2-methoxyphenyl)-4-(trifluoromethyl)-N-[1-[3-(trifluoromethoxy)phenyl]ethyl]-5-thiazolecarboxamide]",10
50 to 1000,"COc1ccc(F)cc1-c1nc(C(F)(F)F)c(C(=O)NC(C)c2cccc(N(C)C)c2)s1 (stereo not shown) [Example 42, 2-(5-fluoro-2-methoxyphenyl)-4-(trifluoromethyl)-N-[1-[3-(dimethylamino)phenyl]ethyl]-5-thiazolecarboxamide]",10
1000 to 20000,"COc1cccc(CNC(=O)c2sc(-c3cc(F)ccc3OC)nc2C(F)(F)F)c1 [Example 45, 2-(5-fluoro-2-methoxyphenyl)-4-(trifluoromethyl)-N-[(3-methoxyphenyl)methyl]-5-thiazolecarboxamide]",3
1000 to 20000,"COc1ccc(F)cc1-c1nc(C(F)(F)F)c(C(=O)NCc2cccc(OC(F)(F)F)c2)s1 [Example 46, 2-(5-fluoro-2-methoxyphenyl)-4-(trifluoromethyl)-N-[(3-trifluoromethoxyphenyl)methyl]-5-thiazolecarboxamide]",10
50 to 1000,"CC(NC(=O)c1sc(-c2ccccc2Cl)nc1C(F)(F)F)c1cccc(OC(F)(F)F)c1 (stereo not shown) [Example 49, 2-(2-chlorophenyl)-4-(trifluoromethyl)-N-[1-[3-(trifluoromethoxy)phenyl]ethyl]-5-thiazolecarboxamide]",0.3
50 to 1000,"CC(NC(=O)c1sc(-c2ccccc2Cl)nc1C(F)(F)F)c1cccc(N(C)C)c1 (stereo not shown) [Example 50, 2-(2-chlorophenyl)-4-(trifluoromethyl)-N-[1-[3-(dimethylamino)phenyl]ethyl]-5-thiazolecarboxamide]",0.3
50 to 1000,"CC(NC(=O)c1sc(-c2ccccc2Cl)nc1C(F)(F)F)c1cccc(C(F)(F)F)c1 (stereo not shown) [Example 51, 2-(2-chlorophenyl)-4-(trifluoromethyl)-N-[1-[3-(trifluoromethyl)phenyl]ethyl]-5-thiazolecarboxamide]",0.3
1000 to 20000,CCN(CC)CCOc1ccccc1-c1nc(C(F)(F)F)c(C(=O)NCc2cccc(F)c2)s1 [Example 54],0.3
50 to 1000,"CC(NC(=O)c1sc(-c2ccccc2N2CCOCC2)nc1C(F)(F)F)c1cccc(C(F)(F)F)c1 (stereo not shown) [Example 56, 2-[2-(4-morpholinyl)phenyl]-4-(trifluoromethyl)-N-[1-[3-(trifluoromethyl)phenyl]ethyl]-5-thiazolecarboxamide]",0.3
50 to 1000,"CC(NC(=O)c1sc(-c2ccccc2N2CCOCC2)nc1C(F)(F)F)c1cccc(OC(F)(F)F)c1 (stereo not shown) [Example 57, 2-[2-(4-morpholinyl)phenyl]-4-(trifluoromethyl)-N-[1-[3-(trifluoromethoxy)phenyl]ethyl]-5-thiazolecarboxamide]",0.3
50 to 1000,"CC(NC(=O)c1sc(-c2ccc(N3CCOCC3)cc2)nc1C(F)(F)F)c1cccc(OC(F)(F)F)c1 (stereo not shown) [Example 58, 2-[4-(4-morpholinyl)phenyl]-4-(trifluoromethyl)-N-[1-[3-(trifluoromethoxy)phenyl]ethyl]-5-thiazolecarboxamide]",30
50 to 1000,CCN(Cc1ccncc1)Cc1ccccc1-c1nc(C(F)(F)F)c(C(=O)NCc2cccc(OC(F)(F)F)c2)s1 [Example 59],3
50 to 1000,"CCN(CC)Cc1cccnc1-c1nc(C(F)(F)F)c(C(=O)NC(C)c2cccc(OC(F)(F)F)c2)s1 (stereo not shown) [Example 61, 2-[3-(diethylaminomethyl)pyridin-2-yl]-4-(trifluoromethyl)-N-[1-[3-(trifluoromethoxy)phenyl]ethyl]-5-thiazolecarboxamide]",30
50 to 1000,CCN(Cc1ccncc1)Cc1cccnc1-c1nc(C(F)(F)F)c(C(=O)N[C@@H](C)c2cccc(N3C[C@@H](C)O[C@@H](C)C3)c2)s1 [Example 66],3
